Assay results reported in the supplement of paper PMC12350171.

Experiments:
[1] = system: Fusobacterium nucleatum subsp. Nucleatum; test: IC25 growth inhibition; higher = less potent
Summary of the method: (§1)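 Under anaerobic conditions, OD578 was read hourly in a plate reader for at least three biological replicates of monocultures grown overnight in mGAM. Each culture started at an OD578 of 0.01 in pre-reduced plates holding twofold drug dilutions and 1% DMSO (or water). IC25 was reported as a tested interval: the lowest concentration where the monotonic median area under the growth curve dropped below the cutoff. That cutoff was 0.75.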

Escherichia coli ED1a = test: IC25 growth inhibition; higher = less potent
Summary of the method: as §1

Roseburia intestinalis = test: IC25 growth inhibition; higher = less potent
Summary of the method: as §1

[2] = system: Salmonella enterica typhimurium; test: IC25 growth inhibition; higher = less potent
Summary of the method: as §1

[3] = system: Streptococcus parasanguinis; test: IC25 growth inhibition; higher = less potent
Summary of the method: as §1

Clostridium ramosum = test: IC25 growth inhibition; higher = less potent
Summary of the method: as §1

Bacteroides fragilis NT = test: IC25 growth inhibition; higher = less potent
Summary of the method: as §1

[4] = system: Yersinia pseudotuberculosis; test: IC25 growth inhibition; higher = less potent
Summary of the method: as §1

Eubacterium rectale = test: IC25 growth inhibition; higher = less potent
Summary of the method: as §1

[5] = system: Clostridium saccharolyticum; test: IC25 growth inhibition; higher = less potent
Summary of the method: as §1

Ruminococcus gnavus = test: IC25 growth inhibition; higher = less potent
Summary of the method: as §1

Clostridium bolteae = test: IC25 growth inhibition; higher = less potent
Summary of the method: as §1

Bacteroides uniformis = test: IC25 growth inhibition; higher = less potent
Summary of the method: as §1

Clostridium perfringens = test: IC25 growth inhibition; higher = less potent
Summary of the method: as §1

Collinsella aerofaciens = test: IC25 growth inhibition; higher = less potent
Summary of the method: as §1

Streptococcus salivarius = test: IC25 growth inhibition; higher = less potent
Summary of the method: as §1

[6] = system: Yersinia enterocolitica WA-314; test: IC25 growth inhibition; higher = less potent
Summary of the method: as §1

Parabacteroides merdae = test: IC25 growth inhibition; higher = less potent
Summary of the method: as §1

Vibrio cholerae = test: IC25 growth inhibition; higher = less potent
Summary of the method: as §1

Dorea formicigenerans = test: IC25 growth inhibition; higher = less potent
Summary of the method: as §1

Bacteroides vulgatus = test: IC25 growth inhibition; higher = less potent
Summary of the method: as §1

Coprococcus comes = test: IC25 growth inhibition; higher = less potent
Summary of the method: as §1

[7] = system: Bacteroides thetaiotaomicron; test: IC25 growth inhibition; higher = less potent
Summary of the method: as §1

Shigella flexneri = test: IC25 growth inhibition; higher = less potent
Summary of the method: as §1

[8] = system: Com21 synthetic gut community; test: community biomass OD578 after 24 h drug treatment relative to untreated (fraction of untreated control); higher = more community growth; conditions: community: Com21 (Com20 + E. coli ED1a)
Procedure: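 Com21 (Com20 plus E. coli ED1a) was treated with drug for 24 h under anaerobic conditions in mGAM. Community OD578 was then measured and normalised to untreated Com21; mean of 3 biological replicates.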

[9] = drug pretreatment concentration 10 µM
[10] = drug pretreatment concentration 20 µM
[11] = drug pretreatment concentration 40 µM
[12] = drug pretreatment concentration 80 µM
[13] = drug pretreatment concentration 160 µM
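Throughout, for IC25 growth inhibition: lowest concentration where monotonic median growth AUC falls below 0.75 of drug-free control.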

| Structure (SMILES) | IC25 growth inhibition [1] [µM] | IC25 growth inhibition (Escherichia coli ED1a) [µM] | IC25 growth inhibition (Roseburia intestinalis) [µM] | IC25 growth inhibition [2] [µM] | IC25 growth inhibition [3] [µM] | IC25 growth inhibition (Clostridium ramosum) [µM] | IC25 growth inhibition (Bacteroides fragilis NT) [µM] | IC25 growth inhibition [4] [µM] | IC25 growth inhibition (Eubacterium rectale) [µM] | IC25 growth inhibition [5] [µM] | IC25 growth inhibition (Ruminococcus gnavus) [µM] | IC25 growth inhibition (Clostridium bolteae) [µM] | IC25 growth inhibition (Bacteroides uniformis) [µM] | IC25 growth inhibition (Clostridium perfringens) [µM] | IC25 growth inhibition (Collinsella aerofaciens) [µM] | IC25 growth inhibition (Streptococcus salivarius) [µM] | IC25 growth inhibition [6] [µM] | IC25 growth inhibition (Parabacteroides merdae) [µM] | IC25 growth inhibition (Vibrio cholerae) [µM] | IC25 growth inhibition (Dorea formicigenerans) [µM] | IC25 growth inhibition (Bacteroides vulgatus) [µM] | IC25 growth inhibition (Coprococcus comes) [µM] | IC25 growth inhibition [7] [µM] | IC25 growth inhibition (Shigella flexneri) [µM] | community biomass OD578 [8, 9] | community biomass OD578 [8, 10] | community biomass OD578 [8, 11] | community biomass OD578 [8, 12] | community biomass OD578 [8, 13] |
| --- | --- | --- | --- | --- | --- | --- | --- | --- | --- | --- | --- | --- | --- | --- | --- | --- | --- | --- | --- | --- | --- | --- | --- | --- | --- | --- | --- | --- | --- |
| C[C@H]1O[C@H](O[C@H]2[C@H](O)[C@@H](O)[C@@H](O[C@H]3[C@H](O)[C@@H](O)C(O)O[C@@H]3CO)O[C@@H]2CO)[C@H](O)[C@@H](O)[C@@H]1N[C@H]1C=C(CO)[C@@H](O)[C@H](O)[C@H]1O (some centres not stated) [Acarbose] | > 160 | > 160 | ≤ 20 | > 160 | > 160 | > 160 | ≤ 10 | > 160 | ≤ 40 | > 160 | > 160 | > 160 | > 160 | > 160 | > 160 | > 160 | > 160 | > 160 | > 160 | > 160 | ≤ 40 | > 160 | > 160 | > 160 | 1.03 | 1.01 | 1 | 1 | 0.989 |
| C[C@@H](O[C@H]1OCCN(Cc2n[nH]c(=O)[nH]2)[C@H]1c1ccc(F)cc1)c1cc(C(F)(F)F)cc(C(F)(F)F)c1 [Aprepitant] | > 160 | > 160 | > 160 | > 160 | > 160 | > 160 | > 160 | > 80 | > 160 | > 160 | > 160 | > 160 | > 160 | > 160 | > 80 | > 160 | > 160 | > 160 | > 160 | > 160 | > 160 | > 160 | > 160 | > 160 | 1 | 0.981 | 0.788 | 1.03 | 1.01 |
| CCc1oc2ccccc2c1C(=O)c1cc(Br)c(O)c(Br)c1 [Benzbromarone] | ≤ 80 | > 160 | ≤ 40 | > 160 | ≤ 10 | ≤ 20 | ≤ 20 | > 160 | ≤ 20 | ≤ 10 | ≤ 20 | ≤ 40 | ≤ 10 | ≤ 10 | ≤ 40 | ≤ 10 | > 160 | ≤ 20 | ≤ 160 | ≤ 40 | ≤ 20 | ≤ 40 | ≤ 20 | > 160 | 0.877 | 0.86 | 0.812 | 0.687 | 0.301 |
